Experimental data reported in publication PMC9653733, “Characterization of a Potent, Selective, and Safe Inhibitor, Ac15(Az8)2, in Reversing Multidrug Resistance Mediated by Breast Cancer Resistance Protein (BCRP/ABCG2)” (International Journal of Molecular Sciences, 2022).
Like-named read-outs stand apart in the source and are kept apart here.

Legend:
S1M180 xenograft [1] = assay: In vivo topotecan accumulation in tumor and plasma of S1M180-bearing mice; details: 45 mg/kg Ac15(Az8)2 I.P. one hour prior to 6 mg/kg topotecan I.P.; 5 h post administration
Text: (§1) (A) S1 xenograft. (B) S1M180 xenograft. There were 3 treatment groups in S1 and S1M180 xenograft model. Treatments were given as indicated by an arrow (↑). % of tumor volume reduction was compared among different treatment groups on days 55 and 71. a, b, and c = mean tumor volume of solvent control, topotecan alone, and combination treatment groups on day 55, respectively. d and e = mean tumor volume of topotecan alone and combination treatment groups on day 71. (C) Tumor weight of S1M180-bearing mice on termination day. (D) % change of tumor volume and tumor doubling time of S1M180 xenograft were determined on days 55 and 71. […] Number of animal death was monitored during the efficacy study. (E) Body weight of S1M180-bearing mice. (F) To measure plasma and intratumor level of topotecan, S1M180-bearing mice were administered with 45 mg/kg (I.P.) of Ac15(Az8)2 one hour prior to 6 mg/kg (I.P.) of topotecan administration. Five hours after topotecan administration, the mice were sacrificed. Plasma and tumor were collected for analyzing topotecan level using UPLC–MS/MS. Student’s unpaired two-tailed t-test was performed between combination group and topotecan alone group or solvent control group as indicated (* p < 0.05, ** p < 0.01, *** p < 0.001).

S1M180 xenograft [2] = test system: S1M180 xenograft
Text: as §1
Ten million of S1M180 cells were injected subcutaneously into Balb/c nu nu mice (Beijing Vital River Laboratory Animal Technology Co., Ltd., Beijing, China). Mice with solid tumors formed were sacrificed. The tumor was removed and cut into 1 mm^3 and xenografted subcutaneously onto another Balb/c nu nu mouse for passage or efficacy study. Treatment of nude mice started when the xenograft reached 100–150 mm^3. The mice were randomized into 3 groups (n = 7 mice per group). Group (1) was treated with Ac15(Az8)2 solvent (I.P.) and topotecan solvent (I.P.), group (2) was treated with Ac15(Az8)2 solvent (I.P.) and topotecan (2 mg/kg, I.P.), group (3) was treated with Ac15(Az8)2 (45 mg/kg, I.P.) and topotecan (2 mg/kg, I.P.). The formulation used was the same as that of the pharmacokinetic study. S1M180-bearing nude mice were treated for 4 rounds. In each round, they were treated once every two days 6 times, allowed to rest for 7 days, and treated again. […] The body weights of mice were monitored throughout the experiment. Tumor dimensions were measured by an electronic caliper, and the tumor volume was calculated as reported previously.

BCRP = target: T1, BCRP (Homo sapiens, UniProt Q9UNQ0, R482G); assay: Lineweaver-Burk and Dixon plots of DOX retention in S1M180; format: cell-based; details: for Ki: S1M180, DOX retention
T1 construct: endogenous in cells; host or cells: S1M180 (human colon carcinoma, mitoxantrone-selected)
T1 sequence (Q9UNQ0 1-655 R482G): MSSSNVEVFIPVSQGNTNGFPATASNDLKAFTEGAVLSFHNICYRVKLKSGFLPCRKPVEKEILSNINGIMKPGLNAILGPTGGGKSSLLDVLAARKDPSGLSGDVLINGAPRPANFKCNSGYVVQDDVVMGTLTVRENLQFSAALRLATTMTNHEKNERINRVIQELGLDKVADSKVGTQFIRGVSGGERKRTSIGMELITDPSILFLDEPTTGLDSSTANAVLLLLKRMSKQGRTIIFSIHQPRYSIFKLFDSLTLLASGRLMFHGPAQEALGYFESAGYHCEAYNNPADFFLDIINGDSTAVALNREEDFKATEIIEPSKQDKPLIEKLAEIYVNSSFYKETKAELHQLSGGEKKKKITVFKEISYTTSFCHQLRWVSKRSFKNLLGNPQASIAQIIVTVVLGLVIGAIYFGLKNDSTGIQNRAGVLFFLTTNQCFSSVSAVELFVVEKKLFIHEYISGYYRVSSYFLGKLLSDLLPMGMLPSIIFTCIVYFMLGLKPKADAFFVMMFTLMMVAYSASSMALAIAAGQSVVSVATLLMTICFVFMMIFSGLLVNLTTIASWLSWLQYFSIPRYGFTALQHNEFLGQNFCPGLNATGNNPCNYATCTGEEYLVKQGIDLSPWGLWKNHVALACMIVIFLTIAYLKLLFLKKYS
Protocol: We investigated the biochemical mechanism by which Ac15(Az8)2 inhibits BCRP. S1M180 cells were incubated with DOX and Ac15(Az8)2 at different concentrations. DOX accumulation was measured and analyzed by Lineweaver–Burk plot. […] Moreover, it is implied that DOX and Ac15(Az8)2 are not binding to the same site on BCRP. The apparent inhibition constant (Ki) can be calculated by either the Lineweaver–Burk plot (inset of Figure 5A) or the Dixon plot (Figure 5B).
Figure 5 Lineweaver–Burk and Dixon plot for Ac15(Az8)2 and DOX. S1M180 cells were incubated with different concentrations of Ac15(Az8)2 and DOX. The cells were pre-treated with Ac15(Az8)2 for 2 h and then incubated with DOX for 1 h at 37 °C. After incubation, the cells were washed with ice-cold PBS, and the intracellular DOX level was measured. (A) In Lineweaver–Burk plot, the reciprocal of DOX retention rate (V, μM/min/500,000 cells) is plotted against reciprocal of DOX concentration used. Six lines of Ac15(Az8)2 pass through the same intercepts at the x-axis, which is Km for the DOX. […] (B) In Dixon plot, reciprocal of DOX retention rate (1/V) was plotted against concentration of Ac15(Az8)2.

[3] = 45 mg/kg Ac15(Az8)2 + 2 mg/kg topotecan

COC(=O)c1cccc(COc2c(-c3ccc(OCCOCCn4cc(CN(Cc5ccccc5)Cc5cn(CCOCCOc6ccc(-c7oc8ccccc8c(=O)c7OCc7cccc(C(=O)OC)c7)cc6)nn5)nn4)cc3)oc3ccccc3c2=O)c1 [Ac15(Az8)2]
Effect on plasma level of topotecan (S1M180 xenograft [1]): did not change significantly | Lengthening of tumor doubling time by combination treatment vs solvent group (S1M180 xenograft [2]; [3]): 4.6 days | Lengthening of tumor doubling time by combination treatment vs topotecan alone (S1M180 xenograft [2]; [3]): 1.8 days | Reduction of tumor weight by combination treatment vs solvent group (S1M180 xenograft [2]; termination day, p < 0.001): 1.9 fold | Reduction of tumor weight by combination treatment vs topotecan alone (S1M180 xenograft [2]; termination day, p < 0.01): 1.6 fold | Ki (BCRP; Lineweaver–Burk and Dixon, read-out: Apparent inhibition constant (Ki), range of both plots): 0.23 to 0.295 µM | Ki (BCRP; read-out: Ki, Dixon plot): 0.23 µM | Ki (BCRP; slope of double reciprocal plots vs concentration, read-out: Apparent Ki, Lineweaver–Burk plot): 0.295 µM | Relationship with DOX in binding to BCRP (BCRP; did not affect Km but reduced Vmax): non-competitive
